# In patent publication US11365215B2, “Method for preventing, improving, or treating inflammatory bowel disease” (Research & Business Foundation Sungkyunkwan University, priority 2015, dated 2022):
# Peptide text beside a SMILES is read from it.
# What was measured:
# [1] = Plasma concentration / pharmacokinetics after intravenous and oral administration; type: in vivo, Male SD rat
# Protocol: Compound 1.1 (SEQ ID NO: 2) was administered to a rat intravenously (I.V., 5 mg/kg) or orally (50 mg/kg), and 24 hours after administration, the concentration of compound 1.1 (SEQ ID NO: 2) in plasma was measured (FIG. 18 and FIG. 19).
# [2] = tested on: MAPK signaling pathway proteins (ERK1/2, JNK, p38); test: Western blot of MAPK signaling pathway protein phosphorylation in LPS-treated RAW 246.7 cells; type: cell-based; conditions: 100 nM for 30 minutes
# Protocol: RAW 246.7 macrophage cells were pretreated with compound 1.1 (SEQ ID NO: 2), compound 1.2 and reference compound 1 (SEQ ID NO: 16) at a concentration of 100 nM for 30 minutes and then further treated with LPS for 0 hour, 0.5 hour, 1 hour and 2 hours. […] Changes of the concentration upon phosphorylation of each protein were measured by immunoblotting using anti-phosphorylation antibodies.
# Specifically, RAW 246.7 macrophage cells were pretreated with DMSO, compound 1.1 (SEQ ID NO: 2) (100 nM), IRAK1/4 inhibitor (25 μM), and smaducin-6 (100 nM) for 30 minutes, and then further treated with LPS (100 ng/ml) for two hours.
# VEGF = test: qRT-PCR of VEGF in high-glucose HRMEC cells; type: cell-based; conditions: 30 mM glucose 48 hours, 10 nM and 50 nM
# Protocol: In addition, HRMEC cells were treated with 5.5 mM of glucose for reference group. For experiment group, the HRMEC cells were treated with 30 mM of glucose for 48 hours to induce high blood glucose condition, and simultaneously treated with DMSO, compound 1.1 (SEQ ID NO: 2) (10 nM), and compound 1.1 (SEQ ID NO: 2) (50 nM). Changes in expression of Nox-4, VEGF, VEGFR1, VEGFR2, Ang1, Ang2, Tie-2, EPO, and EPOR proteins were quantitatively measured by qRT-PCR (quantitative RT-PCR). Expression of VEGF precursor as stimulating factor of new blood vessel was reduced by treatment with compound 1.1 (SEQ ID NO: 2) (FIG. 25C).
# [3] = tested on: DSS-induced chronic colitis; test: Histological analyses of colon villi and mucous membranes in DSS-induced chronic colitis model; type: in vivo, mice; conditions: 100 mpk
# SBE (TFG-β1 signaling) = test: SBE-Luc reporter assay in Raw 264.7 cells treated with TFG-β1; type: cell-based; conditions: 5 ng/mL TFG-β1 two hours
# Protocol: (§1) Specifically, 5×NF-κB-Luc reporter plasmid, SBE-Luc reporter plasmid, and BRE-Luc reporter plasmid were individually transfected into Raw 264.7 macrophage cells. After 24 hours, the cells transfected with the NF-κB-Luc reporter plasmid were treated with 100 ng/mL of LPS, the cells transfected with the SBE-Luc reporter plasmid were treated with 5 ng/mL of TFG-β1, and the cells transfected with the BRE-Luc reporter plasmid were treated with 100 ng/mL of BMP6 for two hours.
# AP-1 = test: AP-1-Luc reporter luciferase assay in LPS-treated RAW 246.7 cells; type: cell-based; conditions: 100 nM for 30 minutes, LPS 100 ng/ml 2 hours
# Protocol: RAW 246.7 macrophage cells were transfected with AP-1-Luc reporter plasmid as described in Example 2.3. After 24 hours, the transfected cells with AP-1-Luc reporter plasmid were pretreated with compound 1.1 (SEQ ID NO: 2) (100 nM), IRAK1/4 inhibitor (25 μM), and smaducin-6 (100 nM) for 30 minutes, and then further treated with LPS (100 ng/ml) for 2 hours.
# [4] = tested on: G-CSF, IL-2, SCF, VEGF, CX3CL1, IGFBP5, IGFBP6, IL-1α, IL-1β, IL-6, IL-9, MCP-1, MIP-3α, IL12p40/70, MIG, TNF-α, and VCAM-1; test: Cytokine array (Mouse cytokine array C3) of LPS-treated RAW 264.7 macrophage cells; type: cell-based; conditions: 100 nM for 30 minutes, LPS two hours, densitometer
# Protocol: (§2) First, RAW 264.7 macrophage cells were purchased from American Type Culture Collection (ATCC; Manassas, Va.), and were culture at a temperature of 37° C., under 5% CO2 atmosphere, using 10% Fetal Bovine Serum (FBS) and Dulbecco's Modified Eagle's Medium (DMEM) containing 1% penicillin/streptomycin.
# In addition, RAW 264.7 macrophage cells cultured as described above were also divided into a 6-well plate, after 24 hours, were pretreated with 100 nM of compound 1.1 (SEQ ID NO: 2) for 30 minutes, and further treated with LPS for two hours. The above cell culture was collected and, using a cytokine array (Mouse cytokine array C3, RayBiotech), changes in amounts of cytokine and chemokine were quantified by a densitometer. The cytokines and chemokines detected by the compound of the present invention included G-CSF, IL-2, SCF, VEGF, CX3CL1, IGFBP5, IGFBP6, IL-1α, IL-1β, IL-6, IL-9, MCP-1, MIP-3α, IL12p40/70, MIG, TNF-α, and VCAM-1.
# BRE (BMP6 signaling) = test: BRE-Luc reporter assay in Raw 264.7 cells treated with BMP6; type: cell-based; conditions: 100 ng/mL BMP6 two hours
# Protocol: as §1
# interleukin-6 = test: Suppression of LPS-induced IL-6 expression in RAW 264.7 macrophage cells (RT-PCR, Real-Time PCR); type: cell-based
# Protocol: as §2
# The cultured RAW 264.7 macrophage cells were divided into a 6-well cell culture plate. After 24 hours, the cells were pretreated with compound 1.1 (SEQ ID NO: 2), compound 1.2, and smaducin-6, respectively, in a concentration of 100 nM for 30 min, and further treated with lipopolysaccharides (LPS) for two hours. These cells were collected using TRIzol® and the RNA was extracted. From 2 μg of the extracted RNA, cDNAs (complementary deoxyribonucleic acids) were synthesized and reverse transcription polymerase chain reactions (RT-PCR) and real-time polymerase chain reactions (Real-Time PCR) were performed. Samples from the RT-PCR were confirmed by electrophoresis on agarose gels and quantified using densitometer. A glyceraldehyde 3-phosphate dehydrogenase (GAPDH) gene was used as a loading control for the interleukin-6 gene.
# RAW 264.7 macrophage cells were treated with varying concentrations of compound 1.1 (SEQ ID NO: 2) from 50 pM to 500 nM for 30 minutes, and treated with 100 ng/mL of LPS for two hours.
# [5] = plasma, iv, Male SD rat, single dose 5 mg/kg (i.v.)
structure (smiles),measurement,setting,value
"CCCCCCCCCCCCCCCC(=O)N1CCC[C@H]1C(=O)N1CCC[C@H]1C(=O)NCC(=O)N[C@@H](Cc1ccc(O)cc1)C(=O)O [compound 1.1, (S)-3-(4-hydroxyphenyl)-2-(2-((S)-1-((S)-1-palmitoylpyrrolidine-2-carbonyl)pyrrolidine-2-carboxamido)acetamido)propanoic acid] (HELM PEPTIDE1{[CCCCCCCCCCCCCCCC(=O)[*:2]].P.P.G.Y}$$$$V2.0)",AUC(0-t),[1]; [5],2140 ng·h/mL
same,Cmax,[1]; [5],6020 ng/mL
same,Tmax,[1]; [5],4.8 min
same,clearance,[1]; [5],45 mL/min/kg
same,Vd,"[1]; plasma, iv, Male SD rat, single dose 5 mg/kg (i.v.), read-out: Vss",5.4 ± 1 L/kg
same,Tmax,"[1]; plasma, po, Male SD rat, single dose 50 mg/kg (p.o.)",0 min
same,time within which the concentration decreased to 1/100 of the initial concentration,"[1]; rat, intravenous 5 mg/kg",1 to 2 h
same,concentration detected in blood,"[1]; rat, intravenous 5 mg/kg, within 8 hours from the administration",very low concentration
same,detection in blood,"[1]; rat, oral 50 mg/kg, after 30 minutes from the oral administration",not detected
same,"phosphorylation of the MAPK signaling pathway proteins (ERK1/2, JNK, p38)","[2]; LPS 0, 0.5, 1 and 2 hours",did not inhibit phosphorylation
same,"MAPK signaling pathway / phosphorylation of ERK, JNK, p38",[2]; LPS 100 ng/ml two hours,neither suppressed MAPK signaling pathway nor inhibited phosphorylation of the proteins
same,expression of VEGF precursor,VEGF,reduced
same,histological damages of large intestinal tissues,[3]; DSS-induced chronic colitis model,alleviated
same,recovery of the mucous membranes (Alcian blue),[3]; in comparison to non-treated group and sulfasalazine 500 mpk,greater recovery of the mucous membranes
same,activation of SBE induced by TFG-β1 treatment,SBE (TFG-β1 signaling),not inhibited
same,AP-1-Luc luciferase activity (MAPK signaling pathway),AP-1,did not suppress MAPK signaling pathways
same,"expression of cytokines and chemokines induced by LPS (G-CSF, IL-2, SCF, VEGF, CX3CL1, IGFBP5, IGFBP6, IL-1α, IL-1β, IL-6, IL-9, MCP-1, MIP-3α, IL12p40/70, MIG, TNF-α, VCAM-1)",[4],suppressed as statistically meaningful
same,activation of BRE induced by BMP6 treatment,BRE (BMP6 signaling),not inhibited
same,IC50,"interleukin-6; Mus musculus, RAW264.7, 50 pM to 500 nM for 30 minutes, 100 ng/mL LPS two hours, read-out: concentration where the expression of interleukin-6 was suppressed to 50% or below (IC50)",~1.6 nM
same,expression of interleukin-6 induced by LPS treatment,"interleukin-6; pretreated 100 nM for 30 min, LPS two hours, compared to untreated sample",suppressed
